{
  "source": "patent USH2260H1",
  "about": "“Stents combined with paclitaxel derivatives” (Angiotech International AG, priority 2005, dated 2011)",
  "key": {"collagenase expression": {"system": "collagenase expression", "experiment": "Effect of other anti-microtubules on IL-1 induced collagenase expression in primary chondrocytes", "type": "cell-based, calf", "conditions": "pre-incubation 6 hours, IL-1 20 ng/ml 18 hours; FIGS. 5A-H", "protocol": "Primary chondrocyte cultures were freshly isolated from calf cartilage. The cells were plated at 2.5×10^6 per ml in 100×20 mm culture dishes and incubated in Ham's F12 medium containing 5% FBS overnight at 37° C. The cells were starved in serum-free medium overnight and then treated with anti-microtubule agents at various concentrations for 6 hours. IL-1 (20 ng/ml) was then added to each plate and the plates incubated for an additional 18 hours. Total RNA was isolated by the acidified guanidine isothiocyanate method and subjected to electrophoresis on a denatured gel. Denatured RNA samples (15 μg) were analyzed by gel electrophoresis in a 1% denatured gel, transferred to a nylon membrane and hybridized with the ^32P-labeled collagenase cDNA probe. ^32P-labeled glyceraldehyde phosphate […] (GAPDH) cDNA as an internal standard to ensure roughly equal loading. The exposed films were scanned and quantitatively analyzed with IMAGEQUANT."}, "MMP-1 mRNA (collagenase)": {"system": "MMP-1 mRNA (collagenase)", "experiment": "IL-1 induced MMP-1 (collagenase) mRNA expression in chondrocytes, Northern blot", "conditions": "pretreatment 24 hours"}, "human fibroblasts": {"system": "human fibroblasts", "experiment": "Screening assay, cell proliferation of fibroblasts (CYQUANT)", "type": "cell-based", "conditions": "Fibroblast, 72 hours, average of n=4 experiments, FIG. 8", "experimental": "Fibroblasts at 70-90% confluency were trypsinized, replated at 600 cells/well in media in 96-well plates and allowed to attach overnight. Paclitaxel was prepared in DMSO at a concentration of 10^−2 M and diluted 10-fold to give a range of stock concentrations (10^−8 M to 10^−2 M). […] Each drug concentration was tested in triplicate wells.\nTo terminate the assay, the media was removed by gentle aspiration. A 1/400 dilution of CYQUANT 400X GR dye indicator (Molecular Probes; Eugene, Oreg.) was added to 1X Cell Lysis buffer, and 200 μL of the mixture was added to the wells of the plate. Plates were incubated at room temperature, protected from light for 3-5 minutes."}, "[1]": {"system": "AP-1 DNA binding activity", "experiment": "IL-1 induced AP-1 DNA binding activity, gel mobility shift with chondrocyte extracts", "type": "cell-based", "conditions": "chondrocytes pretreated with 10^−7 to 10^−5 M for 24 hours, IL-1β 20 ng/ml; FIG. 4C", "protocol": "Binding activity was assayed with a radiolabeled human AP-1 sequence probe and gel mobility shift assay. Extracts from chondrocytes untreated or treated with various amounts of paclitaxel (10^−7 to 10^−5 M) followed by IL-1β (20 ng/ml) were incubated with excess probe on ice for 30 minutes, followed by non-denaturing gel electrophoresis. The “com” lane contains excess unlabeled AP-1 oligonucleotide. The results shown are representative of three independent experiments."}, "MMP-3 mRNA (stromelysin)": {"system": "MMP-3 mRNA (stromelysin)", "experiment": "IL-1 induced MMP-3 (stromelysin) mRNA expression in chondrocytes, Northern blot", "conditions": "pretreatment 24 hours"}, "[2]": {"system": "Chick Chorioallantoic Membrane (CAM)", "experiment": "Chick chorioallantoic membrane (CAM) angiogenesis assay"}},
  "note": "Entries after “also recorded” stand apart in the source; their conditions may differ.",
  "data": [
    {"smiles": "O=C(CCC(=O)ON1C(=O)CCC1=O)OCCOC(=O)CCC(=O)ON1C(=O)CCC1=O", "note": "[ethylene glycol bis-(succinimidylsuccinate)]", "values": [
      {"measurement": "concentration (as low as) preventing IL-1-induced collagenase expression", "setting": "collagenase expression", "result": 100, "unit": "nM"}
    ]},
    {"smiles": "CC(O)CC(C)(C)O", "note": "(centres unmarked) [hexylene glycol]", "values": [
      {"measurement": "concentration (as low as) preventing IL-1-induced collagenase expression", "setting": "collagenase expression", "result": 100, "unit": "nM"}
    ]},
    {"smiles": "CC(=O)O[C@H]1C(=O)[C@@]2(C)[C@H]([C@H](OC(=O)c3ccccc3)[C@]3(O)C[C@H](OC(=O)[C@H](O)[C@@H](NC(=O)c4ccccc4)c4ccccc4)C(C)=C1C3(C)C)[C@]1(OC(C)=O)CO[C@@H]1C[C@@H]2O", "note": "[paclitaxel]", "values": [
      {"measurement": "collagenase mRNA inhibition at 10^−5 M", "setting": "MMP-1 mRNA (collagenase); 10^−5 M paclitaxel", "result": "complete inhibition"},
      {"measurement": "collagenase mRNA levels", "setting": "MMP-1 mRNA (collagenase); then IL-1β, FIG. 4D", "result": "inhibited by pretreatment with paclitaxel; also recorded: significantly reduced"},
      {"measurement": "IC50", "setting": "human fibroblasts", "result": 23, "unit": "nM"},
      {"measurement": "IL-1 induced AP-1 binding activity", "setting": "[1]", "result": "IL-1 induced binding activity decreased"},
      {"measurement": "stromelysin mRNA inhibition at 10^−5 M", "setting": "MMP-3 mRNA (stromelysin); 10^−5 M paclitaxel", "result": "complete inhibition"},
      {"measurement": "stromelysin mRNA levels", "setting": "MMP-3 mRNA (stromelysin); then IL-1β, FIG. 4D", "result": "inhibited by pretreatment with paclitaxel; also recorded: significantly reduced"},
      {"measurement": "angiogenesis in the CAM", "setting": "[2]; 48 hours after application", "result": "angiogenesis was inhibited"},
      {"measurement": "maximal avascular zone, avascular gradient scale", "setting": "[2]; within 48 hours, depending on concentration", "result": 3}
    ]},
    {"smiles": "Nc1ncnc2c1ccn2[C@@H]1O[C@H](CO)[C@@H](O)[C@H]1O", "note": "[tubercidin]", "values": [
      {"measurement": "concentration (as low as) preventing IL-1-induced collagenase expression", "setting": "collagenase expression", "result": 100, "unit": "nM"}
    ]}
  ]
}
